The results in this text go back to patent US20110263566A1 (priority 2008, published 2011).

Common to all, as to assay: cells
The subject of one assay is BT-549 cells. To be noted: Homo sapiens, BT-549, 72 h, read-out: IC50 (microM) (BT549). The method, then:
(§1) To evaluate the expression status of PBK in several cell lines, western blot analysis was performed using crude cell lysate collected from those cells.
(§2) 100 micro-L of cell suspension was seeded onto 96-well microtiter plate (ViewPlate-96FTC, PerkinElmer). […] Cellular growth was determined using Cell Counting Kit-8 (DOJINDO) at 72 hours after the exposure of the candidate inhibitors. […] Accurate IC50 values were calculated as described previously.

The next assay relates to T47D cells. To be noted: Homo sapiens, 72 h, read-out: IC50 (microM) (T47D). The method, then:
as §1, §2

For a further assay, the system named is HT-1197 cells. To be noted: Homo sapiens, HT1197, 72 h, read-out: IC50 (microM) (HT1197). Here is the method: as §1, §2

The structures appear in SMILES notation.

With `O=C(NCC1CCCCN1)c1ccc(O)c2[nH]c(-c3cccs3)nc12` (stereo not drawn) [Example 45, 7-Hydroxy-N-(piperidin-2-ylmethyl)-2-(thiophen-2-yl)-1H-benzo[d]imidazole-4-carboxamide], the figures for the IC50 in the assay with BT-549 cells, with T47D cells and in the assay with HT-1197 cells were 29 µM, 7.8 µM and above 100 µM, respectively.
For `O=C(N[C@H]1CCCNC1)c1ccc(O)c2[nH]c(C3CC4CCC3C4)nc12` (stereo partly drawn) [Example 52, 2-(Bicyclo[2.2.1]heptan-2-yl)-7-hydroxy-N-((S)-piperidin-3-yl)-1H-benzo[d]imidazole-4-carboxamide] the same measures were 0.43 µM, 2.3 µM and 19 µM.
As for `O=C(N[C@H]1CCCNC1)c1ccc(O)c2[nH]c(Cc3cccs3)nc12` [Example 59, (S)-7-hydroxy-N-(piperidin-3-yl)-2-(thiophen-2-ylmethyl)-1H-benzo[d]imidazole-4-carboxamide], the half-maximal inhibitory concentration (IC50) with BT-549 cells was determined as 2.9 µM; in the assay with T47D cells, 11 µM; in the assay on HT-1197 cells it was 76 µM.
For `O=C(NCC1CCCNC1)c1ccc(O)c2[nH]c(C3CC3)nc12` (stereo not drawn) [Example 6, 2-Cyclopropyl-4-hydroxy-N-(piperidin-3-yl-methyl)-1H-benzo[d]imidazole-7-carboxamide] the same measures were 30 µM, 55 µM and above 100 µM.
`O=C(NC1CCNCC1)c1ccc(O)c2[nH]c(-c3cccs3)nc12` [Example 40, 7-Hydroxy-N-(piperidin-4-yl)-2-(thiophen-2-yl)-1H-benzo[d]imidazole-4-carboxamide]: the half-inhibitory concentration (IC50) with BT-549 cells was 73 µM; in the assay with T47D cells it was 13 µM; in the assay on HT-1197 cells, above 100 µM.
Consider `O=C(NCC1CCCNC1)c1ccc(O)c2[nH]c(-c3cccs3)nc12` (stereo not drawn) [Example 39, 7-Hydroxy-N-(piperidin-3-ylmethyl)-2-(thiophen-2-yl)-1H-benzo[d]imidazole-4-carboxamide], for which the IC50 was 15 µM with BT-549 cells, 8.6 µM with T47D cells and above 100 µM with HT-1197 cells.
Consider `O=C(NC1CCCNC1)c1ccc(O)c2[nH]c(C3CC4CCC3C4)nc12` (stereo not drawn) [Example 49, 2-(Bicyclo[2.2.1]heptan-2-yl)-7-hydroxy-N-(piperidin-3-yl)-1H-benzo[d]imidazole-4-carboxamide], for which the half-inhibitory concentration (IC50) in the assay on BT-549 cells worked out at 0.65 µM; in the assay with T47D cells it was 4.1 µM; with HT-1197 cells, 14 µM.
Turning to `O=C(NC1CCNC1)c1ccc(O)c2[nH]c(C3CC3)nc12` (stereo not drawn) [Example 12, 2-cyclopropyl-4-hydroxy-N-(pyrrolidin-3-yl)-1H-benzo[d]imidazole-7-carboxamide], the 50% inhibitory concentration (IC50) was 47 µM in the assay on BT-549 cells, 58 µM in the assay with T47D cells and above 100 µM in the assay with HT-1197 cells.
